Columns and labels:
[1] = system: T1, mTOR-raptor complex; test: Coimmunoprecipitation of raptor with mTOR, compound added to cell extracts or immune complexes; type: binding; settings: extracts of nontransfected cells
T1 construct: rows headed: amount of endogenous raptor that coimmunoprecipitated with mTOR; other: extracts of nontransfected cells
Method: 293T cells were transfected with pcDNA3 alone (Vec.) or with a combination of pcDNA3AU1-mTOR, pcDNA33HA-Raptor, and pcDNA33HA-mLST8. Extracts of the cells were incubated with increasing concentrations of FTS before AU1-mTOR was immunoprecipated. Samples of the immune complexes were incubated with [γ-^32P]ATP and recombinant [His^6]PHAS-I, then subjected to SDS-PAGE and transferred to an immobilon membrane. After obtaining a phosphorimage of the membrane to detect ^32P-PHAS-I, the membrane was immunoblotted with PThr^36/45 antibodies. Other samples of the immune complexes were subjected to SDS-PAGE and immunoblots were prepared with antibodies to the HA epitope or to mTOR (see FIG. 13A). Extracts of nontransfected 293T cells were incubated with increasing concentrations of FTS before mTOR was immunoprecipated with mTAb1. A control immunoprecipitation was conducted using nonimmune IgG (NI). Immune complexes were subjected to SDS-PAGE and immunoblots were prepared with antibodies to mLST8, mTOR, and raptor.
Samples of extracts from 293T cells overexpressing AU1-mTOR, HA-raptor, and HA-mLST8 were incubated for 1 h with increasing concentrations of FTS (●, ▴, ▪) or GTS (∘, Δ, □) before immunoprecipitations were conducted with anti-AU1 antibodies. mTOR kinase activity (●, ∘) was determined by measuring ^32P incorporation into [His^6]PHAS-I in immune complex kinases assays performed with [γ-^32P]ATP (see FIG. 14A). The relative amounts of HA-raptor (▴, Δ) and HA-mLST8 (▪, □) that coimmunoprecipitated with AU1-mTOR were determined after immunoblotting with anti-HA antibodies (see FIG. 14B). The results (mean values+S.E. from 5 experiments) are expressed as percentages of the mTOR activity (FIG. 14A) or coimmunoprecipitating proteins (FIG. 14B) from samples incubated without FTS or GTS, and have been corrected for the amounts of AU1-mTOR immunoprecipitated.
293T cells were transfected with pcDNA3 alone (Vec.) or with a combination of pcDNA3AU1-mTOR, pcDNA33HARaptor, and pcDNA33HA-mLST8. AU1-mTOR was immunoprecipitated and samples of the washed immune complexes were at incubated […] for 30 min with no inhibitors or with the following: caffeine (1 mM), FTS (50 μM), LY294002 (10 μM), rapamycin (1 μM) plus FKBP12 (10 μM), and 1 μM wortmannin. To prevent destruction of wortmannin, incubations were conducted in the absence of thiol reducing agents. Samples of the immune complexes were incubated for 10 min with 10 mM MnCl2, 1 mM [γ-^32P]ATP, and 50 μg/ml [His^6]PHAS-I to assess mTOR activity. Other samples were rinsed twice, subjected to SDS-PAGE, and immunoblotted with anti-HA and anti-AU1 antibodies to determine the amounts of HA-raptor and HA-mLST8 associated with AU1-mTOR. The relative amounts of ^32P incorporated into PHAS-I were determined by phosphorimaging (see FIG. 15B).

[2] = system: ERK1/2 MAP kinase, Akt, p70 S6 kinase, PHAS-I phosphorylation in LTED cells; test: Western analysis of serum-stimulated kinase phosphorylation, LTED cells; type: cell-based, human
Method: FIGS. 7A-7D represent data showing the effect of FTS on serum-stimulated activation of MAP kinase, PI3 kinase, and mTOR. Subconfluent MCF-7 and LTED cells grown in 60 mm dishes were treated with FTS in their culture media for 24 h. Cells were then harvested and cell lysate prepared. Phosphorylation of ERK1/2 MAP kinase (FIG. 7A), Akt at Ser^473 (FIG. 7B), p70 S6 kinase at Thr^389 (FIG. 7C), and PHAS-I at Ser^65 (FIG. 7D) was detected by Western analysis using specific antibodies and quantitated by densitometry scanning.
FIGS. 10A-10D represent data showing the effect of FTS on serum- and growth factor-induced phosphorylation of p70 S6 kinase at Thr^229 in LTED cells (FIG. 10A). Comparison of FTS and LY 294002 (LY) on Thr^229 phosphorylation of p70 S6K induced by EGF (FIG. 10B; by same treatment as described in FIG. 8). Comparison of FTS and LY 294002 on […] phosphorylation of p70 S6K induced by IGF-1 (FIG. 10C; by same treatment as described in FIG. 8). FIG. 10D is graph displaying the time course of FTS (100 μM) effects on Thr^389 and Thr^229 phosphorylation of p70 S6K in LTED cells cultured in serum containing IMEM.
The levels of phosphorylated ERK1/2 MAPK, Akt (Ser^473), p70S6K (Thr^389) and PHAS-1 (Ser^65) were consistently elevated in LTED cells compared to those in wild type MCF-7 cells as indicated by Western blot analysis using specific antibodies against phosphorylated ERK 1/2 (FIG. 7A), Akt (FIG. 7B), p70S6 kinase (FIG. 7C) and PHAS-1 (FIG. 7D). […] (FIGS. 7C & 7D).
In contrast, LY294002 blocked growth factor induced Thr^229 phosphorylation in a dose- and time-dependent manner (FIGS. 10A and 10B). […] Therefore, FTS's effect on MTOR activity was investigated.

[3] = system: MCF-7 cells; test: [3H] thymidine incorporation into DNA, MCF-7 cells; type: cell-based, human
Method: FIGS. 5A & 5B represent the effect of FTS on DNA synthesis in MCF-7 (FIG. 5A) and LTED (FIG. 5B) cells. One hundred thousand cells were plated into each well of 24-well plates. Two days later, the cells were re-fed with IMEM containing 5% DCC-FBS. After another two days, cells were treated in quadruplicate with the compounds indicated for 18 hours. [^3H] thymidine (1 μCi/well) was added during the last 2 h of incubation. [^3H] thymidine incorporated into DNA was normalized by protein content.
The inhibitory effect of FTS on cell growth may be the result of inhibition of cellular proliferation, induction of apoptosis, or both. To determine the mechanism by which FTS inhibits cell growth, FTS's effect on DNA synthesis and apoptosis was investigated. […] Estradiol (10^−10 M) increased [^3H] thymidine incorporation by 2.6 fold compared to the control level in MCF-7 cells.

[4] = system: JNK; test: JNK activation in LTED cells cultured in vitro; type: cell-based, human
Excerpt: FIGS. 17A & 17B represent data showing the effects of FTS on JNK activation in LETD cells cultured in vitro.
FIGS. 17A & 17B represent data showing the effects of FTS on JNK activation in LTED cells cultured in vitro. […] JNK activation has been reported to be associated with apoptosis.

[5] = FTS 100 μM, serum containing medium

CC(C)=CCC/C(C)=C/CC/C(C)=C/CSc1ccccc1C(=O)O [FTS, farnesylthiosalicylic acid]
amount of endogenous raptor that coimmunoprecipitated with mTOR [1]: decreased | time at which inhibition of Thr389 phosphorylation maximized [2, 5]: 24 h | time at which inhibition of Thr389 phosphorylation occurred [2, 5]: 2 h | Thr229 phosphorylation of p70 S6K ([2]; FTS 100 μM, serum containing medium, time course): only slightly reduced | phosphorylation of ERK1/2 MAPK, Akt (Ser473), p70S6K (Thr389) and PHAS-1 (Ser65) ([2]; FTS 24 h in culture media): dose-dependently inhibited | [3H] thymidine incorporated into DNA ([3]; FTS 75 μM, 18 hours): significantly reduced | estradiol-induced increase of [3H] thymidine incorporation ([3]; FTS with estradiol 10^−10 M): completely blocked | JNK activation [4]: stimulates JNK activation

Source: patent US20070037887A1, “Blockade of mtor to prevent a hormonal adaptive response” (University of Virginia Patent Foundation, priority 2003, published 2007)
